Legend:
Format in all cases: in vivo
[1] = test system: Digitaria sanguinalis (DIGSA); assay: Pre-emergence herbicidal activity, glasshouse pot test; details: Digitaria sanguinalis, 480 h, rate 500 g/ha, evaluated after 20 days, read-out: Pre-emergence activity, DIGSA (100=total damage to plant; 0=no damage to plant)
Method in brief: (§1)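 Pre-emergence application: sprayed one day after seeding into pots of sterilised standard soil. After 20 days' growth in a greenhouse, percent damage was scored visually, 0 meaning unharmed and 100 total damage.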

[2] = test system: Echinochloa crus-galli (ECHCG); assay: as above; details: Echinochloa crus-galli, 480 h, rate 500 g/ha, evaluated after 20 days, read-out: Pre-emergence activity, ECHCG (100=total damage to plant; 0=no damage to plant)
Method in brief: as §1

[3] = test system: Lolium perenne (LOLPE); assay: as above; details: Lolium perenne, 480 h, rate 500 g/ha, evaluated after 20 days, read-out: Pre-emergence activity, LOLPE (100=total damage to plant; 0=no damage to plant)
Method in brief: as §1

[4] = test system: Setaria faberi (SETFA); assay: as above; details: Setaria faberi, 480 h, rate 500 g/ha, evaluated after 20 days, read-out: Pre-emergence activity, SETFA (100=total damage to plant; 0=no damage to plant)
Method in brief: as §1

[5] = test system: Alopecurus myosuroides (ALOMY); assay: as above; details: Alopecurus myosuroides, 480 h, rate 500 g/ha, evaluated after 20 days, read-out: Pre-emergence activity, ALOMY (100=total damage to plant; 0=no damage to plant)
Method in brief: as §1

[6] = test system: Avena fatua (AVEFA); assay: as above; details: Avena fatua, 480 h, rate 500 g/ha, evaluated after 20 days, read-out: Pre-emergence activity, AVEFA (100=total damage to plant; 0=no damage to plant)
Method in brief: as §1

[7] = test system: Digitaria sanguinalis (DIGSA); assay: Post-emergence herbicidal activity, glasshouse pot test; details: Digitaria sanguinalis, rate 500 g/ha, evaluated after 14 or 15 days, read-out: Post-emergence activity, DIGSA (100=total damage to plant; 0=no damage to plant)
Method in brief: (§2)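 Foliar application to ten-day-old pot-grown seedlings; formulation: acetone plus solvent/surfactant blend (Emulsogen EL, NMP, DPGME, X-77), diluted in water. Scoring 14/15 d post-spray, 0–100% damage.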

[8] = test system: Echinochloa crus-galli (ECHCG); assay: as above; details: Echinochloa crus-galli, rate 500 g/ha, evaluated after 14 or 15 days, read-out: Post-emergence activity, ECHCG (100=total damage to plant; 0=no damage to plant)
Method in brief: as §2

[9] = test system: Lolium perenne (LOLPE); assay: as above; details: Lolium perenne, rate 500 g/ha, evaluated after 14 or 15 days, read-out: Post-emergence activity, LOLPE (100=total damage to plant; 0=no damage to plant)
Method in brief: as §2

[10] = test system: Setaria faberi (SETFA); assay: as above; details: Setaria faberi, rate 500 g/ha, evaluated after 14 or 15 days, read-out: Post-emergence activity, SETFA (100=total damage to plant; 0=no damage to plant)
Method in brief: as §2

[11] = test system: Alopecurus myosuroides (ALOMY); assay: as above; details: Alopecurus myosuroides, rate 500 g/ha, evaluated after 14 or 15 days, read-out: Post-emergence activity, ALOMY (100=total damage to plant; 0=no damage to plant)
Method in brief: as §2

[12] = test system: Avena fatua (AVEFA); assay: as above; details: rate 500 g/ha, evaluated after 14 or 15 days; for pest or weed control at 500 g/ha: Avena fatua, read-out: Post-emergence activity, AVEFA (100=total damage to plant; 0=no damage to plant)
Method in brief: as §2

Compound | pest or weed control at 500 g/ha [1] | pest or weed control at 500 g/ha [2] | pest or weed control at 500 g/ha [3] | pest or weed control at 500 g/ha [4] | pest or weed control at 500 g/ha [5] | pest or weed control at 500 g/ha [6] | pest or weed control at 500 g/ha [7] | pest or weed control at 500 g/ha [8] | pest or weed control at 500 g/ha [9] | pest or weed control at 500 g/ha [10] | pest or weed control at 500 g/ha [11] | pest or weed control at 500 g/ha [12] | Post-emergence activity, AVEFA (100=total damage to plant; 0=no damage to plant) [12]
CCSC(C)CC1CC(=O)C(c2c(C)cc(C)cc2CC)=C(O)C1 (stereo not drawn) [Compound T1] | 70% | 100% | 70% | 70% | 60% | 30% | 90% | 90% | 70% | 80% | 70% | 70% | –
CCc1cc(CC)c(C2=C(O)CC3(CCOCC3)CC2=O)c(CC)c1 [Compound T2] | 100% | 100% | 100% | 90% | 80% | 70% | 100% | 100% | 80% | 80% | 80% | 80% | –
Cc1ccc(-c2ccc(Cl)cc2)cc1C1=C(O)CC2(CCOCC2)CC1=O [Compound T3] | 100% | 100% | 60% | 100% | 40% | 50% | 100% | 100% | 80% | 100% | 80% | 80% | –
Cc1cc(C)c(C2=C(O)CC3(CCS(=O)(=O)CC3)CC2=O)c(C)c1 [Compound T5] | 70% | 40% | 60% | 30% | 70% | 10% | 70% | 60% | 70% | 70% | 70% | 20% | –
Cc1cc(C)c(C2=C(O)CC3(CCSCC3)CC2=O)c(C)c1 [Compound T6] | 10% | 10% | 0% | 10% | 20% | 30% | 90% | 80% | 10% | 80% | 20% | 10% | –
CCSC(C)CC1CC(=O)C(c2c(CC)cc(C)cc2CC)=C(O)C1 (stereo not drawn) [Compound T7, 2-(2,6-diethyl-4-methylphenyl)-5-[2-(ethylthio)propyl]cyclohexane-1,3-dione] | 100% | 100% | 100% | 100% | 100% | 100% | 90% | 90% | 100% | 100% | 100% | 90% | –
CCc1cc(C)cc(C)c1C1=C(O)CC(CC(C)SC)CC1=O (stereo not drawn) [Compound T10] | 100% | 100% | 100% | 100% | 100% | 70% | 90% | 90% | 100% | 90% | 100% | 100% | –
CSCCC1CC(=O)C(c2c(C)cc(C)cc2C)=C(O)C1 (stereo not drawn) [Compound T12] | 0% | 30% | 40% | 0% | 70% | 20% | 90% | 80% | 60% | 90% | 80% | 30% | –
CCc1cc(C)cc(C)c1C1=C(O)CC(CCSC)CC1=O (stereo not drawn) [Compound T13] | 100% | 80% | 100% | 80% | 100% | 70% | 100% | 90% | 80% | 90% | 90% | 80% | –
CCc1cc(C)cc(CC)c1C1=C(O)CC(CCS(C)(=O)=O)CC1=O (stereo not drawn) [Compound T14] | 100% | 100% | 100% | 100% | 90% | 100% | 100% | 100% | 90% | 100% | 90% | – | 90
CCc1cc(C)cc(CC)c1C1=C(O)CC(CC[S+](C)[O-])CC1=O (stereo not drawn) [Compound T15] | 100% | 100% | 100% | 90% | 100% | 80% | 100% | 100% | 100% | 80% | 90% | 80% | –
CCc1cc(C)cc(CC)c1C1=C(O)CC(CCSC)CC1=O (stereo not drawn) [Compound T16] | 100% | 90% | 100% | 100% | 90% | 70% | 100% | 70% | 90% | 90% | 100% | 80% | –
CCc1cc(C)cc(CC)c1C1=C(O)CC(CC(C)SC)CC1=O (stereo not drawn) [Compound T17] | 100% | 100% | 100% | 100% | 90% | 90% | 100% | 90% | 100% | 90% | 0% | 90% | –
CSC(C)CC1CC(=O)C(c2c(C)cc(C)cc2C)=C(O)C1 (stereo not drawn) [Compound T18] | 60% | 70% | 10% | 40% | 20% | 10% | 80% | 70% | 70% | 80% | 60% | 60% | –

Source: patent publication US8084649B2, “Herbicides” (Syngenta Crop Protection, inc., priority 2007, dated 2011)
